Source: US5747482A, “Methods and compositions to inhibit keratinocyte proliferation” (priority 1996, dated 1998)
Like-named read-outs stand apart in the source and are kept apart here.

Tests used:
keratinocyte cells [1] = assay type: cell-based, human; settings: for induction of apoptosis: 24 hours treatment
From the text: (§1) Adult human keratinocytes from pooled donor skin were obtained from commercial sources (Cascade Biologics, Portland, Oreg., U.S.A.) and placed in 150 cm^2 bottom area culture flasks using culture medium 154 supplemented with HKGS (about 1%). At 80% confluency, cells were harvested with trypsin and cryopreserved until required.
The induction of apoptosis is a critical feature in the programmed cell death as it relates to disease conditions such as cancer, psoriasis, etc. where the uncontrolled proliferation of "immortal" cells such as keratinocytes is a causative feature of the disease. This example compares the ability of gallium maltol to induce apoptosis as compared to negative control (no gallium maltol), and positive control (CAM--an agent known to strongly induce apoptosis). The ability for gallium maltol to effect apoptosis was also measured by the inhibitory effect of ATA.
Specifically, keratinocyte cells were grown using medium 154 in 24 well plates seed with 2,500 cells/cm^2 as described above. Cultures were continued for 3 or 6 days when the cells had achieved about 20 or 60% confluence respectively. On these 2 occasions, media were aspirated from groups of 3 or 4 wells and replaced with high Ca^+2 medium either without supplement or with one of the following supplements:
1. Gallium maltol at a final concentration of one of the following: (a) 5×10^-4 M, (b) 1×10^-4 M, (c) 5×10^-5 M, (d) 1×10^-5 M, and (e) 1×10^-6 M;
4. As in (3) plus CAM at 1×10^-5 or 1×10^-6 M; and
5. As in (3) plus gallium maltol at 1×10^-4 or 2.5×10^-4 M;
(§2) Culture was renewed for a further 24 hours. At this time, media were removed and discarded, and the cells lysed with 200 μL/well of the solution provided in the Cell Death Detection Kit ELISA Plus (Boehringer Mannheim Biochemicals, Indianapolis, Ind., U.S.A., catalogue number 1774425). Aliquots of the lysate (20 μL) from each of 2 or 3 wells were assayed for nucleosomal enrichment following the kit instructions.

[2] = oral; cited from earlier work
Keratinocytes = experiment: Comparison of keratinocyte growth inhibition by gallium maltol, gallium nitrate and maltol, Example 3; assay type: cell-based, human; settings: gallium nitrate 1×10^-4 M; maltol 3×10^-4 M; 9 days, high Ca^+2 medium; FIG. 3
From the text: as §1
At the start of the experiments, the required number of vials of keratinocytes was thawed, and the keratinocytes were placed in culture in 24 well plates at about 2,500 cells/cm^2 using the same culture medium as described above. After 24 hours (to allow attachment), the medium was changed to fresh 154 supplemented with HKGS (about 1%) and gallium maltol. Specifically, the fresh medium was prepared by addition of a sufficient amount of a stock solution to provide for six different compositions having a final gallium concentration of 10^-4 M, 10^-5 M, 10^-6 M, 10^-8 M, 10^-10 M, and 10^-12 M. The stock solution was prepared by adding 22.25 mg of gallium maltol to 50 mL of 154 medium and then passing the solution through a 0.2 μm filter and storing at 4° C.
When control cells were about 40% confluent (generally at 4-5 days in culture, all media were removed by aspiration, keratinocyte growth was assayed by crystal violet staining and conversion to cell numbers as described by Wilkinson, et al.^11. Specifically, cell layers rinsed in PBS, which was also aspirated, and 4 drops of crystal violet solution added to each well. The crystal violet solution was prepared by dissolving crystal violet (Fisher Scientific) in PBS:formaldehyde:ethanol (67:3:30%) to give a 0.5 w/v solution. A blank 24-well plate was treated similarly.
Keratinocytes were cultured in 24-well plates for 9 days in the manner described above in Example 2. […]
The cells were then cultured and subsequently evaluated for inhibition of keratinocyte proliferation in the manner described above.

keratinocyte cells [3] = assay type: cell-based, human; settings: gallium nitrate 5×10^-4 M; maltol 15×10^-4 M; 2 days treatment, 1.2 mM Ca^+2; FIG. 7
Protocol: as §1, §2
The evaluation of apoptosis of keratinocytes was conducted to determine the relative affect on apoptosis achieved by gallium maltol, gallium nitrate and maltol. Specifically, keratinocyte cells were seeded in 12 well plates seed using culture medium 154. Cultures were continued for 4 days and the medium was changed to medium 154 with 1.2 mM Ca^+2 either without supplement or with one of the following supplements:
1. gallium maltol at a final concentration of 5×10^-4 M;
2. gallium nitrate at a final concentration of 5×10^-4 M;
3. maltol at a concentration of 15×10^-4 M; and
4. CAM at a concentration of 1×10^-5 M.
Three (3) wells were used in each group. The final amount of medium was 300 μL in each well. Culture was continued for 2 days. Bars represent absorbance at 405 nm minus the absorbance at 492 nm.

SMILES: O=C(O)C1=CC(=C(c2ccc(O)c(C(=O)O)c2)c2ccc(O)c(C(=O)O)c2)C=CC1=O [ATA, aurin tricarboxylic acid, reference compound]
- reduction of CAM-induced apoptosis (keratinocyte cells [1]; 1×10^-4 M ATA + 1×10^-5 M CAM, cultured 3 days prior, FIG. 5): reduced by half
- reduction of CAM-induced apoptosis (keratinocyte cells [1]; 1×10^-4 M ATA + 1×10^-6 M CAM, cultured 6 days prior, FIG. 6): reduced by half

SMILES: CC[C@@]1(O)C(=O)OCc2c1cc1n(c2=O)Cc2cc3ccccc3nc2-1 [CAM, camptothecin, reference compound]
- induction of apoptosis (keratinocyte cells [1]; 1×10^-5 M, cultured 3 days prior, FIG. 5): strongly induced apoptosis
- induction of apoptosis (keratinocyte cells [1]; 1×10^-6 M, cultured 6 days prior, FIG. 6): strongly induced apoptosis

SMILES: CCc1occc(=O)c1O [ethyl maltol, 3-hydroxy-2-ethyl-4-pyrone]
- toxicity when taken orally [2]: very low toxicities when taken orally

SMILES: O=[N+]([O-])[O-].O=[N+]([O-])[O-].O=[N+]([O-])[O-].[Ga+3] [gallium nitrate]
- effect on keratinocyte proliferation (Keratinocytes): neither gallium nitrate nor maltol had any effect on keratinocyte proliferation
- effect on apoptosis (keratinocyte cells [3]): no significant effect on apoptosis

SMILES: Cc1occc(=O)c1O [maltol, 3-hydroxy-2-methyl-4-pyrone]
- effect on keratinocyte proliferation (Keratinocytes): neither gallium nitrate nor maltol had any effect on keratinocyte proliferation
- effect on apoptosis (keratinocyte cells [3]): no significant effect on apoptosis
- toxicity when taken orally [2]: very low toxicities when taken orally
